Measurements published in US6384186B2 (priority 1995, dated 2002).
Square brackets hold non-standard residues; d marks the D form. Peptide text beside a SMILES is read from it. NMeI = CC[CH](C)[CH](NC)C(=O)O; NMeV = CN[CH](C(=O)O)C(C)C; Sar = CNCC(=O)O

Compound: CCC(C)C1NC(=O)C(C(C)C)N(C)C(=O)C(Cc2c[nH]c3ccccc23)NC(=O)CN(C)C(=O)C(C(C)CC)N(C)C(=O)C(C(C)C)NC(=O)CN(C)C(=O)C(C(C)CC)N(C)C(=O)C(C(C)C)N(C)C(=O)CN(C)C(=O)C(C(C)C)N(C)C(=O)C(C(C)C)N(C)C1=O (centres unmarked) [omphalotin] (cyclo([Sar][NMeV][NMeI][Sar]V[NMeI][Sar]W[NMeV]I[NMeV][NMeV]); configuration not given here)
- Efficacy of omphalotin (Fusarium graminearum): 23%
- Efficacy of omphalotin (Pyricularia oryzae): 70%
